# Target: T1, HMG-CoA (Homo sapiens, UniProt P04035)
# T1 sequence (P04035 426-888 limits assumed): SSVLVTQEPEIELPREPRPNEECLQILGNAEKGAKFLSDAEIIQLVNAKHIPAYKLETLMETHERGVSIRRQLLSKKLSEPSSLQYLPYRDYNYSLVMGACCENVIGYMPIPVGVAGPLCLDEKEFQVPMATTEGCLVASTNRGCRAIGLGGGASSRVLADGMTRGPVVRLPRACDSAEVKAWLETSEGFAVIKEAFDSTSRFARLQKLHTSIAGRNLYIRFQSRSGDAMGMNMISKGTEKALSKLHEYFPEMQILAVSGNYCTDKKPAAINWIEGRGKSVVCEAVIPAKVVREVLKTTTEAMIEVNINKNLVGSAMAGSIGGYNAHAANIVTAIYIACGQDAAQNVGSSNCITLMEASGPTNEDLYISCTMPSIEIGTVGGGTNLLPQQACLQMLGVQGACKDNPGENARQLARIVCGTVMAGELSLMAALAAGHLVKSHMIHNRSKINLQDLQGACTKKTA
# Conditions: FIG. 17; S565 hydrogen bond
structure (smiles),measurement,value
CC(C)c1c(C(=O)Nc2ccccc2)c(-c2ccccc2)c(-c2ccc(F)cc2)n1CC[C@@H](O)C[C@@H](O)CC(=O)O [atorvastatin],binding sites when binding to HMG-CoA,many binding sites (S565)
CC(C)c1nc(N(C)S(C)(=O)=O)nc(-c2ccc(F)cc2)c1/C=C/[C@@H](O)C[C@@H](O)CC(=O)O [rosuvastatin],binding sites when binding to HMG-CoA,many binding sites (S565)
